Measurements taken from article PMC3115942 (PLoS ONE, 2011).
“Also recorded” adds a separate entry of the source.

Experiments:
[1] = tested on: Hh pathway in Shh-L2 cells; assay: Hh reporter assay in Shh-L2 cells; assay type: cell-based, mouse
Method: Shh-L2 cells were used as a Hh reporter cell line as described previously. Hh signaling was induced by Shh conditioned medium, 200 nM SAG (AH-Diagnostics) and ActOXS (a combination of 5 µM Hydroxycholesterol 20-alfa and 5 µM Hydroxycholesterol 22S (Sigma-Aldrich)). For Shh conditioned medium, Shh-PANC-1 cells were grown to confluence and switched to fresh medium. Shh conditioned medium was harvested after 48 hours, and was diluted to 50% in fresh DMEM before use. The clonal Shh-PANC-1 cell line was generated by stably transducing PANC-1 cells with virus containing medium from HEK293T cells that were transfected using a Virapower Lentiviral expression kit (Invitrogen). The vector was produced by removing GFP from a pLenti 6.2-vector, and inserting the mouse Shh cDNA sequence.
The calculations were performed with an online calculator using the formula: a exp (−bx) + c at the website; http://www.changbioscience.com/stat/ec50.html

[2] = tested on: PANC-1 cells; assay: In vitro antiproliferative assay (MTS), PANC-1; assay type: cell-based, human; details: 5 µM, 4 day
Method: (§1) Cells were plated at a density of 3000 (THLE-2 and PC-3) and 1000 (PANC-1, SUIT-2 and FEMX) cells per well (on the basis of their growth rate) in 200 µl of medium in a 96-well plate. Medium was changed daily, and after four days, the assay was read using a MTS kit (Promega) according to the instructions of the manufacturer. Graphs display average of percent growth with standard deviation (n = 8).

[3] = tested on: PC-3 cells; assay: In vitro antiproliferative assay (MTS), PC-3; assay type: cell-based, human; details: 4 day
Method: as §1

[4] = tested on: TNF-α induced NfkB signaling in NIH3T3 cells; assay: NFkB luciferase reporter assay in NIH3T3; assay type: cell-based; details: NIH3T3, 10 µM and 20 µM, 24 hours
Method: Vectors were obtained from the following: GliBS-Luc reporter (gift from H. Sasaki), pBluescript (pBS) (Stratagene), FL-HA-GLI1 (Gli1) and Gli2-GFP (Gli2) (gifts from R. Toftgård), Super8XTOPFlash, and NFkB-luc (Panomics). 10 ng renilla luciferase (pRL-TK) (Promega) was used as a transfection control. HEK293 and NIH3T3 cells were seeded at 80,000 per well in 48-well plates on day 1, and were co-transfected on day 2 using a total of 0.4 µg plasmid per well mixed at 1∶3 in FUGENE6 according to manufacturer^'s instructions. On day 3, control medium and activating medium (50% L1 conditioned medium, 50% Shh conditioned medium or medium containing 10 ng/mL recombinant rcrTNF-α (R&D Systems)) +/− 10–20 µM MS-0022 were added, using DMSO as a control (the NFkB pathway inhibitor Bay11-7082 was used as a control in the NFkB assay). Samples were analyzed on day 4 or 5 using the Dual Luciferase assay kit according to manufacturer^'s instructions. Graphs display relative or fold reporter activity, and are calculated from a mean ratio of firefly reporter luminescence/pRL-TK luminescence with standard deviation error bars (n = 3). The experiments have been repeated with similar results.

[5] = tested on: AMPK(r); assay: Millipore kinaseprofiler diversity array; assay type: biochemical, rat; details: 10 µM MS-0022
Method: (§2) Table 4 Kinase activity in presence of 10 µM MS-0022 in a kinaseprofiler diversity array. | column: Activity %

[6] = biological target: T1, ALK(h) (Homo sapiens, UniProt Q9UM73); assay: Millipore kinaseprofiler diversity array; assay type: biochemical; details: 10 µM MS-0022
T1 construct: purchased Millipore (Upstate) KinaseProfiler
T1 sequence (Q9UM73 19-1620): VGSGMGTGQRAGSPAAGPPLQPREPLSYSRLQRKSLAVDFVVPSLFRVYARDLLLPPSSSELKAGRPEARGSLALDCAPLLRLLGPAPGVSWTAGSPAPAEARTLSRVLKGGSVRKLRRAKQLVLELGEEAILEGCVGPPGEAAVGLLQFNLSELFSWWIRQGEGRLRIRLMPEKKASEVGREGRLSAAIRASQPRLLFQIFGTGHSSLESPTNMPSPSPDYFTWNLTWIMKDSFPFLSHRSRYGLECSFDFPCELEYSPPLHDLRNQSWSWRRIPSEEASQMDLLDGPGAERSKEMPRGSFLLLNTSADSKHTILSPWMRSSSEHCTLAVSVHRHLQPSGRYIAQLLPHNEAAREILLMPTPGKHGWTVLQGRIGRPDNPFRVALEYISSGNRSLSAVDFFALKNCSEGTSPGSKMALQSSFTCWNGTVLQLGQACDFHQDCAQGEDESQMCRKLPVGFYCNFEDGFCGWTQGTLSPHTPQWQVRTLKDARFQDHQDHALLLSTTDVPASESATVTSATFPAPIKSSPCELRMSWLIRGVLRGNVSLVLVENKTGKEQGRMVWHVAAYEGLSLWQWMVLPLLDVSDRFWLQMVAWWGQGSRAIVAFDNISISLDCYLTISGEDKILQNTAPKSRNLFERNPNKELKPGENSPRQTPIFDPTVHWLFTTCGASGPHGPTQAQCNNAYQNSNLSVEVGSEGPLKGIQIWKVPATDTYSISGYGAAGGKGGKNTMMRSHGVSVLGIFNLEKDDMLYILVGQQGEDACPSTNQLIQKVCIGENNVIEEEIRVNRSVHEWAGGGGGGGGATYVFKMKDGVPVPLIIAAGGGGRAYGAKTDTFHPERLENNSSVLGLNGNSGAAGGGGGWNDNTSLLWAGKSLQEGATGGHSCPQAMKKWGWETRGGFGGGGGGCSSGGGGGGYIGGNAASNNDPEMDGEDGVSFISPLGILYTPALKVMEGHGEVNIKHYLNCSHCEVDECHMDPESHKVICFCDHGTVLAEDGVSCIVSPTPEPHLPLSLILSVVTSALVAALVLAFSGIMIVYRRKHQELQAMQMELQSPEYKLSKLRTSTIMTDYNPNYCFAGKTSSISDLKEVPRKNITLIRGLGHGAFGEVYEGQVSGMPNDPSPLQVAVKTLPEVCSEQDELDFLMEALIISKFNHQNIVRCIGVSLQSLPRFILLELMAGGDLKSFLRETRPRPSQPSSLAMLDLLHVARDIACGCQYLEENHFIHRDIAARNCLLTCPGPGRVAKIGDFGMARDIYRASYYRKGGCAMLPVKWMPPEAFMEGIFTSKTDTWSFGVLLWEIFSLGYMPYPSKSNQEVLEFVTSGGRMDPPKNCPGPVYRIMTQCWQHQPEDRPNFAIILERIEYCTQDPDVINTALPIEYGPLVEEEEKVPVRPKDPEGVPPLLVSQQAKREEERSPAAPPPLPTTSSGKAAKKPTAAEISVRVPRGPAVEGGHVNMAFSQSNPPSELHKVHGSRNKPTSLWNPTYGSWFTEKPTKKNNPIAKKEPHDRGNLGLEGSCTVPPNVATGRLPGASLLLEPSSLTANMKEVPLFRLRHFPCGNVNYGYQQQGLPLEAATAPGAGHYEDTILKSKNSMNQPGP
Method: as §2

[7] = biological target: T2, EGFR(h) (Homo sapiens, UniProt P00533); assay: Millipore kinaseprofiler diversity array; assay type: biochemical; details: 10 µM MS-0022
T2 construct: purchased Millipore (Upstate) KinaseProfiler
Method: as §2

[8] = biological target: T3, EphA5(h) (Homo sapiens, UniProt P54756); assay: Millipore kinaseprofiler diversity array; assay type: biochemical; details: 10 µM MS-0022
T3 construct: purchased Millipore (Upstate) KinaseProfiler
Method: as §2

[9] = biological target: T4, EphB4(h) (Homo sapiens, UniProt P54760); assay: Millipore kinaseprofiler diversity array; assay type: biochemical; details: 10 µM MS-0022
T4 construct: purchased Millipore (Upstate) KinaseProfiler
T4 sequence (P54760 16-987): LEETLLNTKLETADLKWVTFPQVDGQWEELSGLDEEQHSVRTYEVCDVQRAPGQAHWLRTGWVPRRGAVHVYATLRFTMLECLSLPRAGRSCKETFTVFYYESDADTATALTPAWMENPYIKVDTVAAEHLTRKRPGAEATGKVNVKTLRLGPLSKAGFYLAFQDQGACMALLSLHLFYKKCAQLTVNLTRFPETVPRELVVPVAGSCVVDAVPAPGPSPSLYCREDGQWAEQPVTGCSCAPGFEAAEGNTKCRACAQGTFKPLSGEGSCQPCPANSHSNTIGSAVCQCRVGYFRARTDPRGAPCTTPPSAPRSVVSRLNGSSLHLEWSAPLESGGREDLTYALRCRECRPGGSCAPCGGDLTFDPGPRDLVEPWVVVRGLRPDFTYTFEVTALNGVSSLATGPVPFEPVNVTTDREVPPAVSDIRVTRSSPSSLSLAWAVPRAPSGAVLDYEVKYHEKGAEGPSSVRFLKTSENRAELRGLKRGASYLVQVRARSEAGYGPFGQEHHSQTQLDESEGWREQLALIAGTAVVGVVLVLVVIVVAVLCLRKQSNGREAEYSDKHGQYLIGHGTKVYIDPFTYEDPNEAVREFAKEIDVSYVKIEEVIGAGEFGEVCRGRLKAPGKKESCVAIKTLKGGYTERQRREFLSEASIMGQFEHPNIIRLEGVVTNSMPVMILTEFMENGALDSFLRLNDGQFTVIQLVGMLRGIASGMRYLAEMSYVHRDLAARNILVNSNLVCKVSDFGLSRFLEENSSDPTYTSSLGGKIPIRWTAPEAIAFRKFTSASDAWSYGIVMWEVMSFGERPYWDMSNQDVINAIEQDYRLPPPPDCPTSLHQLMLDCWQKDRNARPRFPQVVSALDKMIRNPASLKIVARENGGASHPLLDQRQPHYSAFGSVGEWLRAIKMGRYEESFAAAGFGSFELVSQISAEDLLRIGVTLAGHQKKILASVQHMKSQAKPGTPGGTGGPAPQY
Method: as §2

[10] = biological target: T5, Fyn(h) (Homo sapiens, UniProt P06241); assay: Millipore kinaseprofiler diversity array; assay type: biochemical; details: 10 µM MS-0022
T5 construct: purchased Millipore (Upstate) KinaseProfiler
Method: as §2

[11] = biological target: T6, JAK2(h) (Homo sapiens, UniProt O60674); assay: Millipore kinaseprofiler diversity array; assay type: biochemical; details: 10 µM MS-0022
T6 construct: purchased Millipore (Upstate) KinaseProfiler
T6 sequence (O60674 whole entry): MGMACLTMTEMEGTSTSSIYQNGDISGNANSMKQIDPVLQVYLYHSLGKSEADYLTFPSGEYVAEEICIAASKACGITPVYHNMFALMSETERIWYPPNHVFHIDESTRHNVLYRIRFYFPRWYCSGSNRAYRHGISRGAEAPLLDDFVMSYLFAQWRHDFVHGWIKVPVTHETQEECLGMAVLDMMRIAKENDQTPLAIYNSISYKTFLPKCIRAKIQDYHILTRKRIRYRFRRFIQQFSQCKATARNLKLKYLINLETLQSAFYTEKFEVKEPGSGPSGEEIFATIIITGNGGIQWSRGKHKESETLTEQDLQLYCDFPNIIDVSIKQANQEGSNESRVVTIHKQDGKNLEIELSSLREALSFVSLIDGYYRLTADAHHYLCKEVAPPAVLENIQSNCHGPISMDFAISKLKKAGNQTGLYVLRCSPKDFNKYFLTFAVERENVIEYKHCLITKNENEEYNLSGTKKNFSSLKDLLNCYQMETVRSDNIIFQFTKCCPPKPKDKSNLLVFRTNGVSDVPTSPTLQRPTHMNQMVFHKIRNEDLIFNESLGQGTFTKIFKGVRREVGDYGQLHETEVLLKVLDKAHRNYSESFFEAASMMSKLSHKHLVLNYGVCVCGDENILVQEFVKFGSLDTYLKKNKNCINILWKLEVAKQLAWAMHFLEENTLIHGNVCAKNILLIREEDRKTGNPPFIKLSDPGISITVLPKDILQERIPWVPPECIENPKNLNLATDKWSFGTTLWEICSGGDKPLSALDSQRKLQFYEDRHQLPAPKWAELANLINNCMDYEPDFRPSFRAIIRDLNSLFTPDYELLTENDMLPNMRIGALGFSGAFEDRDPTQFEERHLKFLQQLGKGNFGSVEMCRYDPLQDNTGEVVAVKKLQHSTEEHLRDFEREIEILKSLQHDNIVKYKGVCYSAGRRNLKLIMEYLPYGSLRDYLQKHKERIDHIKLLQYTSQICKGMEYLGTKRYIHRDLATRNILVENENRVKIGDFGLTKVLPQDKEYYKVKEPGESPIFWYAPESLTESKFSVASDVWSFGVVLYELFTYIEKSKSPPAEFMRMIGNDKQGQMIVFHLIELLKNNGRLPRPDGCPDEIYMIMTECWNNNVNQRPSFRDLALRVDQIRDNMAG
Method: as §2

[12] = biological target: T7, Lyn(h) (Homo sapiens, UniProt P07948); assay: Millipore kinaseprofiler diversity array; assay type: biochemical; details: 10 µM MS-0022
T7 construct: purchased Millipore (Upstate) KinaseProfiler
Method: as §2

[13] = biological target: T8, MST1(h) (Homo sapiens, UniProt Q13043); assay: Millipore kinaseprofiler diversity array; assay type: biochemical; details: 10 µM MS-0022
T8 construct: purchased Millipore (Upstate) KinaseProfiler
Method: as §2

[14] = biological target: T9, NEK2(h) (Homo sapiens, UniProt P51955); assay: Millipore kinaseprofiler diversity array; assay type: biochemical; details: 10 µM MS-0022
T9 construct: purchased Millipore (Upstate) KinaseProfiler
T9 sequence (P51955 whole entry): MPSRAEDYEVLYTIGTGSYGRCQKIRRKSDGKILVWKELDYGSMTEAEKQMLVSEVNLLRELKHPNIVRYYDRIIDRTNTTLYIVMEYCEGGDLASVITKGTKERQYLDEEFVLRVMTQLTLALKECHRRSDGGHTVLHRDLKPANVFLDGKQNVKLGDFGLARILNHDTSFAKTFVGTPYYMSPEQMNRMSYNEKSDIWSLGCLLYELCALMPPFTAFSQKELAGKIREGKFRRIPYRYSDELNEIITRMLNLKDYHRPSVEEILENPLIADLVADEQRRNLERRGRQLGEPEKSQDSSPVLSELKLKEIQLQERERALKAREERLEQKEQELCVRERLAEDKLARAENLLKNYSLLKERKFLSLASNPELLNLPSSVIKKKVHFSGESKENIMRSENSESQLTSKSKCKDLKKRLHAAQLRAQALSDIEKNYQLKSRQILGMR
Method: as §2

[15] = biological target: T10, PKG1α(h) (Homo sapiens, UniProt Q13976); assay: Millipore kinaseprofiler diversity array; assay type: biochemical; details: 10 µM MS-0022
T10 construct: purchased Millipore (Upstate) KinaseProfiler
Method: as §2

[16] = biological target: T11, Plk3(h) (Homo sapiens, UniProt Q9H4B4); assay: Millipore kinaseprofiler diversity array; assay type: biochemical; details: 10 µM MS-0022
T11 construct: purchased Millipore (Upstate) KinaseProfiler
T11 sequence (Q9H4B4 whole entry): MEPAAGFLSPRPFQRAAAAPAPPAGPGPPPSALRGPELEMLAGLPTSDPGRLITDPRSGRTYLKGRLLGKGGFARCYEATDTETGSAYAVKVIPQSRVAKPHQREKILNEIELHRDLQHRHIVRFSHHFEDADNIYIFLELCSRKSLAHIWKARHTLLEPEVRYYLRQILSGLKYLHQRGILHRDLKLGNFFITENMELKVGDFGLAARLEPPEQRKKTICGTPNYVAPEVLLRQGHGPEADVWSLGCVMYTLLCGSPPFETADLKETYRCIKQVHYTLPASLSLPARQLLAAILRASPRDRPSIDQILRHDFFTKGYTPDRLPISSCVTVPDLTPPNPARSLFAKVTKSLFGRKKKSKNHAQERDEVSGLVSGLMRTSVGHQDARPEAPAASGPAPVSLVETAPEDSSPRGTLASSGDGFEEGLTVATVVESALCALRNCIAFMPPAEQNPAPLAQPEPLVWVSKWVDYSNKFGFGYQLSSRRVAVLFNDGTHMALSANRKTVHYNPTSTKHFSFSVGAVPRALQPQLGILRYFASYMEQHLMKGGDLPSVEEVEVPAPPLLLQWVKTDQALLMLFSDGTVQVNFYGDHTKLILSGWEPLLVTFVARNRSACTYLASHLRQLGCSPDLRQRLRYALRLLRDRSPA
Method: as §2

[17] = biological target: T12, cSRC(h) (Homo sapiens, UniProt P12931); assay: Millipore kinaseprofiler diversity array; assay type: biochemical; details: 10 µM MS-0022
T12 construct: purchased Millipore (Upstate) KinaseProfiler
Method: as §2

[18] = biological target: T13, eEF-2K(h) (Homo sapiens, UniProt O00418); assay: Millipore kinaseprofiler diversity array; assay type: biochemical; details: 10 µM MS-0022
T13 construct: purchased Millipore (Upstate) KinaseProfiler
Method: as §2

[19] = Liver transaminases (AST/ALT) in xenografted mice; assay type: in vivo, mouse; details: 50 mg/kg, 30 days injection scheme (5 day injection, 2 day pause), PANC-1 xenograft mice
Method: For PANC-1 xenografts, 4–6 week old CB17/SCID mice were injected with 5×10^6 PANC-1 (n = 6 per group) cells in 200 µl PBS subcutaneously on day 1. IP treatment with 50 mg/kg MS-0022 began when median tumor size reached 25 mm^2 (day 27). MS-0022 was pulverized using a pestle, and was mixed into a stable suspension in water containing 1% Tween 80 (Sigma-Aldrich). Mice were treated with MS-0022 or solvent for a period of 30 days after initiation in a 5 day injection 2 day pause scheme, and tumor size was measured throughout using calipers (mm^2). After 30 days the mice were sacrificed and tumors dissected and weighed. The PANC-1 xenograft endpoint was taken two days after the last compound treatment.
Blood was collected from the hepatic vein of freshly sacrificed animals into heparinized capillary blood collection tubes (Sarstedt), which were immediately centrifuged and the serum was collected. AST and ALT were run on non-hemolyzed samples using AST and ALT kits (Randox) following the manufacturer^'s instructions.

[20] = tested on: SUIT-2 xenograft; assay: SUIT-2 subcutaneous xenograft in CB17/SCID mice; assay type: in vivo
[21] = 50 mg/kg daily PO, 18 days, vs control group

## Cc1cccn2cc(-c3ccc(NC(=O)c4ccccc4Br)cc3)nc12 [MS-0022, 2-bromo-N-(4-(8-methylimidazo[1,2-a]pyridin-2-yl)phenyl)benzamide]
[1]; 5 µM, 48 hours, Shh, 200 nM SAG, ActOxs (5 µM+5 µM)
  Hh pathway induction in Shh, SAG and ActOXS induced Shh-L2 cells: blocked Hh pathway induction
[1]; Mus musculus, pathway inhibition in Shh induced Shh-L2 cells, 48 hours treatment
  IC50: 100 nM
[2]
  growth (MTS), PANC-1: reduced growth
[3]
  growth (MTS), PC-3: growth was only reduced by MS-0022
[4]
  TNF-α induced NfkB signaling: nor did it block; also recorded: slight increase of NFkB signaling
[5]
  Activity %: 98%
[6]
  activity at 10 µM: 95%
[7]
  activity at 10 µM: 84%
[8]
  activity at 10 µM: 112%
[9]
  activity at 10 µM: 99%
[10]
  activity at 10 µM: 100%
[11]
  activity at 10 µM: 110%
[12]
  activity at 10 µM: 103%
[13]
  activity at 10 µM: 94%
[14]
  activity at 10 µM: 127%
[15]
  activity at 10 µM: 94%
[16]
  activity at 10 µM: 107%
[17]
  activity at 10 µM: 83%
[18]
  activity at 10 µM: 99%
[19]
  AST/ALT levels: greater than 1
[20]; 50 mg/kg daily PO
  animal weight, SUIT-2 xenograft mice: unaffected
  outwards signs of toxicity, SUIT-2 xenograft mice: did not result in any outwards signs of toxicity
[20]; [21]
  reduction in tumor volume, SUIT-2 xenograft: 27%
  reduction in tumor weight, SUIT-2 xenograft: 36%
[20]; after 7 days of treatment, 50 mg/kg PO, 50 mg/kg
  mouse (stromal) Gli1 mRNA in SUIT-2 tumors: reduced significantly
[20]; endpoint of the experiment (18 days), 50 mg/kg PO
  human or mouse Gli1, or Ptch1 mRNA levels in SUIT-2 tumors: no statistical relevant reduction
